Laboratory results published in patent US12486251B2 (PHARMABLOCK SCIENCES (NANJING) , INC., priority 2020, dated 2025).

Biological target: CBP recombinant proteins (Homo sapiens (Human), UniProt Q92793)
Experiment: Competitive HTRF assay for affinity to CBP recombinant protein
Type: binding
Details: His-tagged CBP 5 nM, biotin-labeled ligand 50 nM, 1% DMSO
Protocol: The affinity of the compounds synthesized in the present patert to the CBP recombinant proteins was determined by competitive HTRF method. His-tagged cyclic adenosine monophosphate response element binding protein (CREB-binding protein, CBP) was expressed in Escherichia coli system and further purified. CBP biotinylated ligands were all self-made. The BL21 star (DE3) competert cells transfected with His-tagged CBP protein genes at N-terminal were cultured at 37° C. for 16 h until the OD value was between 0.6 and 0.8, induced by 0.5 mM of IPTG and cultured overnight. The supernatant of cell lysate was purified by a Ni-ion affinity column and a Superdex75 molecular sieve column sequentially. The purity of resulting CBP proteins was 95%. The fluorescent donor reagent MAb Anti 6HIS—Eu cryptate Gold (Cisbio #61HI2KLA), the receptor reagent Streptavidin-XL665 (#610SAXLA) and the detection buffer (#62SDBRDD) required for HTRF were obtained from CISBIO BIOASSAYS (Codolet, France). Tris(2-carboxyethyl)phosphine hydrochloride (TCEP), sodium chloride, adenosine triphosphate (ATP), Tween-20, dimethylsulfoxide (DMSO), bovine serum albumin (BSA) and HEPES buffer were obtained from SIGMA at the highest level commercially available.
The general procedure of the competitive HTRF assay for the affinity to CBP recombinant proteins is as follows: 0.05% Tween-20 and 1 mM of TCEP were added immediately before the assay, and the assay was performed in a buffer consisting of 0.1 mg/ml BSA, 50 mM of HEPES and 5 mM of NaCl of pH 7.5. 2.5 μL of compound solution in a determination buffer with 4% DMSO and 5 μL of CBP solution in a determination buffer were added to a white low-volume 384-well microtiter plate, incubated at room temperature for 20 min, and then incubated at room temperature for 40 min by adding 2.5 μL of biotin-labeled ligand solution to the determination buffer. The final concentrations of CBP, biotin-labeled ligand and DMSO were 5 nM, 50 nM and 1%, respectively. Then, 5 μL of MAb Anti 6HIS—Eu cryptate Gold and […] of Streptavidin-XL665 in detection buffers from the manufacturer were added to the mixture, and the mixture was incubated for another 60 min. The final concentration of Streptavidin-XL665 was 12.5 nM, and MAb Anti 6HIS—Eu cryptate Gold was diluted according to the final concentration provided by the supplier. The multimode reader Spark from TECAN (Mannedorf, Switzerland) was used to read the plate to detect the homogeneous time-resolved fluorescence intensity of two groups, in which the excitation wavelength was 320 nm and the emission wavelengths were 665 nm and 620 nm. The IC50 value of the inhibitor was obtained by fitting fluorescence intensity ratios at 665 nm/620 nm with respect to the inhibitor concentration in an S-shaped dose-response curve by using Prism 7 (La Jolla, 15 CA).

CBP recombinant proteins, sequence (Q92793 whole entry): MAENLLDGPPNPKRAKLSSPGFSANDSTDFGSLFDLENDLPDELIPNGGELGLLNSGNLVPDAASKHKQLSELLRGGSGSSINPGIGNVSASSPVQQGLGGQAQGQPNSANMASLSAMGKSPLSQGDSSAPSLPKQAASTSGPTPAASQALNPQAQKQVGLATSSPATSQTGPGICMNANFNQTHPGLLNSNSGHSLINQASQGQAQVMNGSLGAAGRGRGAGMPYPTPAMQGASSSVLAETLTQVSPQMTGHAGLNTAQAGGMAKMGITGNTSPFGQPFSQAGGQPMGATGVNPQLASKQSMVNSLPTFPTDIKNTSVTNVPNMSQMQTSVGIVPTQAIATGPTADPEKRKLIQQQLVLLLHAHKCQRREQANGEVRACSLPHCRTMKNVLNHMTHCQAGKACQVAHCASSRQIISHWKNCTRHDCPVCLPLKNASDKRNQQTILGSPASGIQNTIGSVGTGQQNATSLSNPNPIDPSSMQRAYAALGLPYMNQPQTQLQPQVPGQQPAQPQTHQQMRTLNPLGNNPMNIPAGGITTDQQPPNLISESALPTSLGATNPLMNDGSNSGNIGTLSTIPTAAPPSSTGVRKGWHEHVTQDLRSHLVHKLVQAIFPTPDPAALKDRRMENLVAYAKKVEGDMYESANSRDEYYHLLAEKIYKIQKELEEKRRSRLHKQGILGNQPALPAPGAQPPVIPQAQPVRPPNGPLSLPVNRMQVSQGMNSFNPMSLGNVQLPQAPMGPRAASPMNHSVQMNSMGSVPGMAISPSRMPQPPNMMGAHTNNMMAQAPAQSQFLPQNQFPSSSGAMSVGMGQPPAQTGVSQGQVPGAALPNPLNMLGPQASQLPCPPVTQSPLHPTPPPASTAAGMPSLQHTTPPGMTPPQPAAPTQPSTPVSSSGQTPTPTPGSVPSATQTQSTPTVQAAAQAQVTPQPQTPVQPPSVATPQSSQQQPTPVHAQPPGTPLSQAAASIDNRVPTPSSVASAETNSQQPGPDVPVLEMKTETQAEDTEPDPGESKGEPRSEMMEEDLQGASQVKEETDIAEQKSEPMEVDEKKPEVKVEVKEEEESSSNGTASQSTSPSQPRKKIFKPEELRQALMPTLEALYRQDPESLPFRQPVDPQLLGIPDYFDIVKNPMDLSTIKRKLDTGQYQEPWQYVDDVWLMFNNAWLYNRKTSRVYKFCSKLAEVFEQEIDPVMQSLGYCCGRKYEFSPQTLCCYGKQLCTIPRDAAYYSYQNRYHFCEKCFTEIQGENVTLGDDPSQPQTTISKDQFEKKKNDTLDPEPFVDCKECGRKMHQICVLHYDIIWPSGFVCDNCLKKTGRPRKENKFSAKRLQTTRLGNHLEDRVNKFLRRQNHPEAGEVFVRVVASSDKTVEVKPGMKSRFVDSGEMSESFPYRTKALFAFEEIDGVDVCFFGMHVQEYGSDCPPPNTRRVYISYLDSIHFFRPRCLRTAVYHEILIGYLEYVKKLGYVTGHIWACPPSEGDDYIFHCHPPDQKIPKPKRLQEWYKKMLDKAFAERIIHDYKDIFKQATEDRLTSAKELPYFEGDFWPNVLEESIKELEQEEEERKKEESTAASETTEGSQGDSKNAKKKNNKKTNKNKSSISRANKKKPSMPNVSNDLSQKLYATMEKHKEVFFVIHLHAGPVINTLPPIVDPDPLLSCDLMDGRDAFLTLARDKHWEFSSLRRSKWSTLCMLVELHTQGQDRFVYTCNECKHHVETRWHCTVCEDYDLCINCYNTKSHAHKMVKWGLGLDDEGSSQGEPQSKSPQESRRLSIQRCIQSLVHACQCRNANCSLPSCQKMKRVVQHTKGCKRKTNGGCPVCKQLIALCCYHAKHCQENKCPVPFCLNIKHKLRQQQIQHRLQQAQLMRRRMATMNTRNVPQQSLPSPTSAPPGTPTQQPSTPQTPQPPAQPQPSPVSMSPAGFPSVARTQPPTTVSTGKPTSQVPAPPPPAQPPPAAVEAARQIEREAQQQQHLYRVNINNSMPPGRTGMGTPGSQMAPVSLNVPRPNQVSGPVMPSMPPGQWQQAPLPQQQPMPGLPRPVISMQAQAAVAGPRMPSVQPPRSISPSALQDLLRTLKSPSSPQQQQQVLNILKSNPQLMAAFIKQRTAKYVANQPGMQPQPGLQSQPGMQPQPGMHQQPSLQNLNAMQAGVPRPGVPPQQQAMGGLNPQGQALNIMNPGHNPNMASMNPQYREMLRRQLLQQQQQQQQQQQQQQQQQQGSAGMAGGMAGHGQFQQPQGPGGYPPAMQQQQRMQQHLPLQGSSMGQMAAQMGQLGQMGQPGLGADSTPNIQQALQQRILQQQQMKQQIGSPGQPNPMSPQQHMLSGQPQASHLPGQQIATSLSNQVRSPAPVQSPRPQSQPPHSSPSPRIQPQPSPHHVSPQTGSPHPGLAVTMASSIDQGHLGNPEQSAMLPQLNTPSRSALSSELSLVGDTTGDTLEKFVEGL

Question: How did the IC50 turn out when `CNC(=O)c1cc2cc(N3CCCS3(=O)=O)ccc2c(N2CCCc3cc(-c4cnn(C)c4)c(C(F)F)cc32)n1` [Example 26, 1-(7-(difluoromethyl)-6-(1-methyl-1H-pyrazol-4-yl)-3,4-dihydroquinolin-1(2H)-yl)-6-(1,1-dioxyisothiazolidin-2-yl)-N-methyliso-quinoline-3-carboxamide] was run?
Answer: 11 nM

Question: With `CNC(=O)c1cc2cc(N3CCN(C)CC3=O)ccc2c(N2CCCc3cc(-c4cnn(C)c4)c(C(F)F)cc32)n1` [Example 27, 1-[7-difluoromethyl-6-(1-methyl-1H-pyrazol-4-yl)-3,4-dihydro-2H-quinolin-1-yl]-6-(4-methyl-2-oxo-piperazin-1-yl)-isoquinoline-3-carboxylic acid methylamide] as the molecule, how does the IC50 read?
Answer: 3.3 nM

Question: Which IC50 does the source give for `CNC(=O)c1cc2cc(N3CCOCC3=O)ccc2c(N2CCCc3cc(-c4cnn(C)c4)c(C(F)F)cc32)n1` [Example 28, 1-[7-difluoromethyl-6-(1-methyl-1H-pyrazol-4-yl)-3,4-dihydro-2H-quinolin-1-yl]-6-(3-oxo-morpholin-4-yl)-isoquinoline-3-carboxylic acid methylamide] here?
Answer: 5.3 nM

Question: Which IC50 does the source give for `CNC(=O)c1cc2cc(C3CCCO3)ccc2c(N2CCCc3cc(-c4cnn(C)c4)c(C(F)F)cc32)n1` (stereo not shown) [Example 29, 1-[7-difluoromethyl-6-(1-methyl-1H-pyrazol-4-yl)-3,4-dihydro-2H-quinolin-1-yl]-6-(tetrahydrofuran-2-yl)-isoquinoline-3-carboxylic acid methylamide] here?
Answer: 16 nM

Question: How did the IC50 turn out when `CNC(=O)c1cc2ccccc2c(N2CCCc3cc(-c4cncnc4)c(C(F)F)cc32)n1` [Example 30, 1-(7-difluoromethyl-6-pyrimidine-5-yl-3,4-dihydro-2H-quinolin-1-yl)-isoquinoline-3-carboxylic acid methylamide] was run?
Answer: 22 nM

Question: For `CNC(=O)c1cc2ccccc2c(N2CCCc3cc(C4=CCOCC4)c(C(F)F)cc32)n1` [Example 31, 1-[7-difluoro-methyl-6-(3,6-dihydro-2H-pyran-4-yl)-3,4-dihydro-2H-quino-lin-1-yl]-iso-quinoline-3-carboxylic acid methylamide], which IC50 is on record?
Answer: 49 nM

Question: Which IC50 does the source give for `CCn1cc(-c2cc3c(cc2C(F)F)N(c2nc(C(=O)NC)cc4ccccc24)CCC3)cn1` [Example 32, 1-[7-difluoro-methyl-6-(1-ethyl-1H-pyrazol-4-yl)-3,4-dihydro-2H-quinolin-1-yl]-isoquino-line-3-carboxylic acid methylamide] here?
Answer: 36 nM

Question: For `CNC(=O)c1cc2ccccc2c(N2CCCc3cc(-c4cnn(C5CC5)c4)c(C(F)F)cc32)n1` [Example 33, 1-[6-(1-cyclo-propyl-1H-pyrazol-4-yl)-7-difluoromethyl-3,4-dihydro-2H-quino-lin-1-yl]-iso-quinoline-3-carboxylic acid methylamide], which IC50 is on record?
Answer: 44 nM

Question: With `CNC(=O)c1cc2ccccc2c(N2CCCc3cc(-c4ccn(C)n4)c(C(F)F)cc32)n1` [Example 34, 1-[7-difluoro-methyl-6-(1-methyl-1H-pyrazol-3-yl)-3,4-dihydro-2H-quinolin-1-yl]-isoquinoline-3-carboxylic acid methylamide] as the molecule, how does the IC50 read?
Answer: 32 nM

Question: `CNC(=O)c1cc2ccccc2c(N2CCCc3cc(-c4cnn(CCO)c4)c(C(F)F)cc32)n1` [Example 35] was tested. Which IC50 did it give?
Answer: 16 nM

Question: `CNC(=O)c1cc2cccnc2c(N2CCCc3cc(-c4cncnc4)c(C(F)F)cc32)n1` [Example 37, 8-(7-difluoro-methyl-6-pyrimidine-5-yl-3,4-dihydro-2H-quinolin-1-yl)-[1,7] naphthyridine-6-carboxylic acid methylamide] was tested. Which IC50 did it give?
Answer: 16 nM

Question: Which IC50 does the source give for `CNC(=O)c1cc2cccnc2c(N2CCCc3cc(-c4cnn(CS(C)(=O)=O)c4)c(C(F)F)cc32)n1` [Example 38, 8-[7-difluoro-methyl-6-(1-methanesulfonyl-methyl-1H-pyrazol-4-yl)-3,4-dihydro-2H-quinolin-1-yl]-[1,7] naphthyridine-6-carboxylic acid methylamide] here?
Answer: 14 nM

Question: How did the IC50 turn out when `CNC(=O)c1cc2cccnc2c(N2CCCc3cc(-c4ccnnc4)c(C(F)F)cc32)n1` [Example 39, 8-(7-difluoro-methyl-6-pyrida-zine-4-yl-3,4-dihydro-2H-quinolin-1-yl)-[1,7] naphthyridine-6-carboxylic acid methylamide] was run?
Answer: 13 nM

Question: For `CNC(=O)c1cc2ccccc2c(N2CCC(NC)c3cc(-c4cnn(C)c4)ccc32)n1` (stereo not shown) [Example 40, 1-[4-methylamino-6-(1-methyl-1H-pyrazol-4-yl)-3,4-dihydro-2H-quinolin-1-yl]-isoquinoline-3-carboxylic acid methylamide], which IC50 is on record?
Answer: 62 nM

Question: How did the IC50 turn out when `CNC(=O)c1cc2ccccc2c(N2CCC(O)c3cc(-c4cnn(C)c4)ccc32)n1` (stereo not shown) [Example 41, 1-[4-hydroxy-6-(1-methyl-1H-pyrazol-4-yl)-3,4-dihydro-2H-quinolin-1-yl]isoquinoline-3-carboxylic acid methylamide] was run?
Answer: 57 nM

Question: For `CNC(=O)c1cc2ccccc2c(N2CCCc3cc(C4=CCNCC4)c(C(F)F)cc32)n1` [Example 42], which IC50 is on record?
Answer: 50 nM

Question: Which IC50 does the source give for `CNC(=O)c1cc2cccnc2c(N2CCCc3cc(C4=CCN(C(C)=O)CC4)c(C(F)F)cc32)n1` [Example 43, 8-[6-(1-acetyl-1,2,3,6-tetrahydropyridin-4-yl)-7-difluoromethyl-3,4-dihydro-2H-quinolin-1-yl]-[1,7]naphthyridine-6-carboxylic acid methylamide] here?
Answer: 6.7 nM

Question: `CNC(=O)c1cc2cccnc2c(N2CCCc3cc(C4=CCN(C)CC4)c(C(F)F)cc32)n1` [Example 44, 8-[7-difluoromethyl-6-(1-methyl-1,2,3,6-tetrahydropyridin-4-yl)-3,4-dihydro-2H-quinolin-1-yl]-[1,7]naphthyridine-6-carboxylic acid methylamide] was tested. Which IC50 did it give?
Answer: 64 nM

Question: How did the IC50 turn out when `CNC(=O)c1cc2cccnc2c(N2CCCc3cc(C4=CCN(S(C)(=O)=O)CC4)c(C(F)F)cc32)n1` [Example 45, 8-[7-difluoromethyl-6-(1-methanesulfonyl-1,2,3,6-tetrahydropyridin-4-yl)-3,4-dihydro-2H-quinolin-1-yl]-[1,7]naphthyridine-6-carboxylic acid methylamide] was run?
Answer: 8.5 nM

Question: `CNC(=O)c1cc2cccnc2c(N2CCCc3cc(C4CCN(C(C)=O)CC4)c(C(F)F)cc32)n1` [Example 46, 8-[6-(1-acetylpiperidin-4-yl)-7-difluoromethyl-3,4-dihydro-2H-quinolin-1-yl]-[1,7]naphthyridine-6-carboxylic acid methylamide] was tested. Which IC50 did it give?
Answer: 5.4 nM

Question: `CNC(=O)c1cc2ncccc2c(N2CCCc3cc(C4CCN(C(C)=O)CC4)c(C(F)F)cc32)n1` [Example 47, 5-[6-(1-acetylpiperidin-4-yl)-7-difluoro-methyl-3,4-dihydro-2H-quinolin-1-yl]-[1,6] naphthyridine-7-carboxylic acid methylamide] was tested. Which IC50 did it give?
Answer: 31 nM

Question: Which IC50 does the source give for `CNC(=O)c1cc2cnccc2c(N2CCCc3cc(C4CCN(C(C)=O)CC4)c(C(F)F)cc32)n1` [Example 48, 1-[6-(1-acetylpiperidin-4-yl)-7-difluoro-methyl-3,4-dihydro-2H-quinolin-1-yl]-[2,6] naphthyridine-3-carboxylic acid methylamide] here?
Answer: 13 nM

Question: `CNC(=O)c1cc2ccncc2c(N2CCCc3cc(C4CCN(C(C)=O)CC4)c(C(F)F)cc32)n1` [Example 49, 1-[6-(1-acetylpiperidin-4-yl)-7-difluoro-methyl-3,4-dihydro-2H-quinolin-1-yl]-[2,7] naphthyridine-3-carboxylic acid methylamide] was tested. Which IC50 did it give?
Answer: 12 nM

Question: `CNC(=O)c1cc2cc(Cl)cnc2c(N2CCCc3cc(C4CCN(C(C)=O)CC4)c(C(F)F)cc32)n1` [Example 50, 8-[6-(1-acetylpiperidin-4-yl)-7-difluoro-methyl-3,4-dihydro-2H-quinolin-1-yl]-3-chloro-[1,7] naphthyridine-6-carboxylic acid methylamide] was tested. Which IC50 did it give?
Answer: 54 nM

Question: With `CNC(=O)c1cc2cc(OC)cnc2c(N2CCCc3cc(C4CCN(C(C)=O)CC4)c(C(F)F)cc32)n1` [Example 51, 8-[6-(1-acetylpiperidin-4-yl)-7-difluoro-methyl-3,4-dihydro-2H-quinolin-1-yl]-3-methoxy-[1,7] naphthyridine-6-carboxylic acid methylamide] as the molecule, how does the IC50 read?
Answer: 22 nM
